How the values were obtained:
[1] = Selectivity index, ratio of CC50 for African green monkey Vero cells to EC50 for Kaposi's sarcoma-associated herpesvirus infected in African green monkey Vero cells; assay type: toxicity, cell-based; details: read-out: Ratio CC50/EC50
[2] = Cytotoxicity against African green monkey Vero cells assessed as reduction in cell viability after 48 hrs by Alamar blue assay; assay type: toxicity, cell-based; details: chlorocebus sabaeus
[3] = tested on: Human gammaherpesvirus 8; test: Antiviral activity against Kaposi's sarcoma-associated herpesvirus infected in African green monkey Vero cells exposed to supernatant from 48 hrs compound treated human iSLK.219 cells infected with KSHV by GFP based microscopy; assay type: functional, cell-based; details: Human gammaherpesvirus 8, Vero

Row | Compound | EC50 [3] [µM] | selectivity ratio [1] | CC50 at 48 h [2] [µM]
1 | CC(C)C(=O)c1c(O)cc(O)c(C[C@@H]2[C@@H](C(C)(C)O)CC[C@]2(C)O)c1O | 158 | > 1.89 | > 300
2 | CC(C)C(=O)c1c(O)cc(O)c2c1OC(C)(C)[C@@H]1CC[C@@](C)(O)[C@H]1C2 | 39.8 |  | > 300
3 | CC(C)C(=O)c1c(O)cc(O)c2c1O[C@@]1(C)CC[C@@H](C(C)(C)O)[C@@H]2[C@H]1O | 203 | > 2.46 | > 500
4 | CC(C)C(=O)c1c(O)cc(O)c2c1O[C@]1(C)CC[C@@H](C(C)(C)O)O[C@@H]1C2 | 29.1 |  | 174

The remaining compounds from weak to strong by EC50 [3], led by results:

Row | EC50 [3] [µM] | Compound | selectivity ratio [1] | CC50 at 48 h [2] [µM]
5 | 141 | CC(C)C(=O)c1c(O)cc(O)c2c1O[C@]1(C)CC[C@H](C(C)(C)O)[C@H]2[C@@H]1O | > 3.55 | > 500
6 | 40 | CC(C)C(=O)c1c(O)cc(O)c(C[C@H]2[C@H](C(C)(C)O)CC[C@@]2(C)O)c1O | > 7.5 | > 300
7 | 17.7 | CC(C)C(=O)c1c(O)cc(O)c2c1OC(C)(C)[C@H]1CC[C@](C)(O)[C@@H]1C2 |  | 221
8 | 8.75 | CC(C)C(=O)c1c(O)cc(O)c2c1O[C@@]1(C)CC[C@H](C(C)(C)O)O[C@H]1C2 |  | 141

Source: ChEMBL document CHEMBL3853282, “(±)-Japonicols A-D, Acylphloroglucinol-Based Meroterpenoid Enantiomers with Anti-KSHV Activities from Hypericum japonicum” (J Nat Prod, 2016)
